In brackets after ≈: the same amount, converted by molar mass.
Key:
HeLa = settings: bulk resorufin, single well, 28.5 h, 10 µM, Bulk resorufin fluorescence
in vitro [1] = settings: human, hela cells, % viability
in vitro [2] = assay: in vitro; set-up: Viability of infected HeLa host cells, resazurin conversion, bulk resorufin fluorescence relative to DMSO; settings: human, hela cells; bulk resorufin, mean of 3
[3] = test system: T1, CTL2-GFP (C. trachomatis L2/434/Bu, GFP-expressing); assay: microbe, parasite or virus in culture; set-up: C. trachomatis growth in HeLa, dose-response, mean of bulk GFP fluorescence and imaged total inclusion area; settings: Chlamydia trachomatis, HeLa, 28.5 h; mean of GFP and inclusion area
T1 construct: L2/434/Bu, GFP-expressing
Text: (§1) We screened a library of 36,785 small molecules displaying drug-like properties and covering a wide chemical space (Fig 1A and S2A Data). In this process, we also complemented the assay described above with an imaging-based readout (Fig 1B). After measurements of bulk GFP and resorufin fluorescence, cells were fixed, stained with the DNA dye Hoechst, and imaged at a high-content imaging platform to detect chlamydial inclusions (GFP) and host cell nuclei (Hoechst). The total area and number of inclusions in individual wells and the number of nuclei then served as additional proxies for chlamydial growth and host cell viability. […] MICs were calculated as described above.

[4] = test system: T1, CTL2-GFP (C. trachomatis L2/434/Bu, GFP-expressing); assay: microbe, parasite or virus in culture; set-up: species or system HeLa; C. trachomatis growth in HeLa, dose-response, mean of bulk GFP fluorescence and imaged total inclusion area; settings: Chlamydia trachomatis, 28.5 h; mean of GFP and inclusion area
Text: as §1

SMILES	% viability (HeLa) [%]	viability at 28.5 h, 10 µM (in vitro [1]) [%]	viability at 28.5 h, 0.000416667 µM (in vitro [2]) [%]	viability at 28.5 h, 0.00125 µM (in vitro [2]) [%]	viability at 28.5 h, 0.00375 µM (in vitro [2]) [%]	viability at 28.5 h, 0.0123333 µM (in vitro [2]) [%]	viability at 28.5 h, 0.037 µM (in vitro [2]) [%]	viability at 28.5 h, 0.111 µM (in vitro [2]) [%]	viability at 28.5 h, 0.333 µM (in vitro [2]) [%]	viability at 28.5 h, 1 µM (in vitro [2]) [%]	viability at 28.5 h, 3 µM (in vitro [2]) [%]	viability at 28.5 h, 10 µM (in vitro [2]) [%]	viability at 28.5 h, 30 µM (in vitro [2]) [%]	IC50 [3] [µM]	MIC [4] [µM]
CCOc1ccc(-c2ccnc(NC[C@@H]3CCCO3)n2)cc1C(=O)O [CBK306568]	89.2	86.5													
CC[C@H](CO)NC(=O)c1coc(COc2ccc3sc(C)nc3c2)n1 [CBK306602]	93.5	85.3													
CCCCc1ccc(Nc2csc(N)n2)cc1 [c11e]			97.7	95.9	96.4	104	92.8	97.8	99.6	102	92.4	92.8	69.9	0.956	3.11 (≈ 0.768 µg/mL)
CN(C(=O)c1ccc(Cl)c(Cl)c1)[C@H]1CCC[C@H]1N1CCCC1 [c12e]			93	89.3	91.4	89	88.9	92.8	88.7	89	85.2	92.7	82.8	1.02	1.7 (≈ 0.581 µg/mL)
O=C(CC1SC(Nc2ccc(O)cc2)=NC1=O)c1ccccc1 (centres unmarked) [c13e]			95	92.7	87.7	95	87.6	92	86.2	88.7	85.2	85.6	83.8	1.03	4.56 (≈ 1.49 µg/mL)
CC(Cc1nc(-c2nccn2C)cs1)n1cc(Cl)cn1 (centres unmarked) [c14e]			104	110	107	105	103	106	103	111	108	110	110	1.03	3.65 (≈ 1.12 µg/mL)
CCCN(CCC)CCc1cccc2c1CCN2C(=O)c1cc2ccccc2s1 [c15e]			87.3	89.2	89.8	88.8	85.5	94.8	94.4	90.6	91.2	99.9	91.3	1.15	3.22 (≈ 1.31 µg/mL)
CCOc1ccsc1C(=O)NC1Cc2ccccc2C1 [c16e]			89.7	86.9	89.9	85.4	87.1	85.4	87.5	84.6	84.5	84.3	87	1.19	3.2 (≈ 0.92 µg/mL)
Cc1ccc2[nH]c3c(c2c1)CCOC31CCN(Cc2ccccc2-c2ccccc2)CC1 [c22e]			98.6	89.4	94.8	87.6	94.6	86.6	87.8	85.7	85.7	86.9	70.7	1.8	3.81 (≈ 1.61 µg/mL)
CC(=O)N1CCc2sccc2C1c1ccccc1NCc1ccoc1 (centres unmarked) [c28e]			92.9	92.5	86	93.2	90.6	89.2	86.1	90.6	82.6	87.9	83	2.6	5.24 (≈ 1.85 µg/mL)
CCCCc1ccc(NC(=N)Nc2nc(C)cc(C)n2)cc1 [c33e]			90.9	88	91.3	91.5	93.1	92.6	94.3	88.2	98.2	101	112	3.25	11.7 (≈ 3.49 µg/mL)
FC(F)(F)CCN1CCC2(CC1)NCCc1c2[nH]c2ccc(Cl)cc12 [c34e]			86.8	91.2	88.2	90.3	88.5	93.2	89.1	91.8	88.3	93.9	71.8	3.31	11.9 (≈ 4.42 µg/mL)
O=C(CSc1nnc(-c2cccnc2)o1)c1ccccc1 [c35e]			99.4	96.5	91.9	91.4	87	90.5	87	90.5	84.4	87	88.7	3.71	11.9 (≈ 3.54 µg/mL)
COc1cccc(CNC(C(=O)O)c2ccc3c(c2)OCO3)c1 (centres unmarked) [c40e]			109	98.4	103	95.7	99.4	102	103	104	103	99.7	89.7	4.96	10.8 (≈ 3.42 µg/mL)
O=[N+]([O-])c1ccc(-n2cnc3ccccc32)c([N+](=O)[O-])c1 [c41e]			99	96.9	102	101	104	97.8	104	99.3	99	101	96.3	5.2	11.2 (≈ 3.17 µg/mL)
O=C(NCCc1c[nH]c2ccc(Cl)cc12)c1c(F)ccc(Cl)c1F [c42e]			100	101	98.1	104	99.6	101	106	109	107	103	107	5.3	5.43 (≈ 2 µg/mL)
Oc1c(CN2CCN(c3ccc(F)cc3)CC2)cc(Br)c2cccnc12 [c43e]			97.2	91.7	92.6	88.5	91.8	86.8	90	86.1	88.5	84.3	85.2	5.48	9.58 (≈ 3.99 µg/mL)
CCC(c1ccc(F)cc1)N(C)C(=O)Cn1cc(C(=O)NC2CCCCC2)ccc1=O (centres unmarked) [c44e]			93.4	91.8	93.8	89.2	90.8	86.7	87.7	85.4	87.9	83.2	87.2	5.83	
FC(F)(F)c1ccc(N2CCNCC2)nc1OCc1ccc2c(c1)OCCO2 [c46e]			85.8	88.5	88.8	94.6	90.4	93.4	88.9	91.1	94	97.2	11.7	6.17	11.3 (≈ 4.47 µg/mL)

Source: publication PMC12040169 (PLOS Biology, 2025)
